Active and inactive are the calls of the source. No cut-off for these calls is given here. Positions of bridges follow the written chain, without caps; N, C: chain ends. Non-standard residues stand in square brackets, D forms with d. Residues, ends and D or L forms follow the SMILES beside them. ξ: configuration not given here. ξtBuAla = CC(C)(C)CC(N)C(=O)O; ξAbu = CCC(N)C(=O)O
Legend:
[1] = biological target: T1, Estrogen receptor (Homo sapiens) (UniProt P03372); assay: Inhibition of estrogen receptor-mediated gene expression in human T47D cells assessed as reduction in estrogen-induced pS2 mRNA expression at 3 to 30 uM incubated for 24 hrs by qPCR method; format: cell-based
T1 sequence (whole entry): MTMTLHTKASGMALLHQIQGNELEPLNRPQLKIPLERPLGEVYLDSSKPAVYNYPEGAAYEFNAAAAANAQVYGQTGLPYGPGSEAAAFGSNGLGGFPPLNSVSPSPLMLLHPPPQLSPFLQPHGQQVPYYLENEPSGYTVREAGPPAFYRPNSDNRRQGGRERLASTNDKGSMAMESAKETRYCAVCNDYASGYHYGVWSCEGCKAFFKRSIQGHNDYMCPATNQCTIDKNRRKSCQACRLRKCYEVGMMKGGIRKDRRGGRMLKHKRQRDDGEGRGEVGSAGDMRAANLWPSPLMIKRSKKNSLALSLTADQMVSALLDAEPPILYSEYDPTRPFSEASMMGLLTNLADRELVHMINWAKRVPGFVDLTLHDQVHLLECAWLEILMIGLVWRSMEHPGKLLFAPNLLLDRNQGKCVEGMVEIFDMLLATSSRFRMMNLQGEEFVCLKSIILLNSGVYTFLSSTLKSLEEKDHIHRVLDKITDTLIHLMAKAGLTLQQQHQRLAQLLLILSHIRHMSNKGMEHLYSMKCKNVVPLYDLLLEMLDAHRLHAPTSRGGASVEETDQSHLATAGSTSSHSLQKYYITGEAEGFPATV

[2] = biological target: T2, Estrogen receptor (Homo sapiens, UniProt P03372)
T2 sequence (P03372 whole entry): T1 sequence (whole entry)
Description: Inhibition of estrogen receptor alpha (unknown origin)-SRC1 coactivator interaction incubated for 1 hr by receptor cofactor assay system based method

[3] = biological target: T1, Estrogen receptor (Homo sapiens); assay: Inhibition of estrogen receptor-mediated gene expression in human T47D cells assessed as reduction in estrogen-induced pS2 mRNA expression at 3 uM incubated for 24 hrs by qPCR method; format: cell-based
[4] = biological target: T1, Estrogen receptor (Homo sapiens); settings: T47D, 10 uM
Description: Inhibition of estrogen receptor-mediated gene expression in human T47D cells assessed as reduction in estrogen-induced pS2 mRNA expression at 10 uM incubated for 24 hrs by qPCR method

[5] = tested on: T47D; assay: Drug uptake in human T47D cells at 1 uM incubated for 3 hrs by Hoechst 33342 dye based confocal laser scanning microscopy; format: ADME, cell-based

| Molecule | IC50 [2] [µM] | further results |
| --- | --- | --- |
| CC[C@H](C)[C@@H]1NC(=O)[C@H](NC(=O)[C@H](CCCNC(=N)N)NC(=O)CNC(=O)CNC(=O)CNC(=O)[C@H](CCCNC(=N)N)NC(=O)[C@H](CCCNC(=N)N)NC(=O)[C@H](CCCNC(=N)N)NC(=O)[C@H](CCCNC(=N)N)NC(=O)[C@H](CCCNC(=N)N)NC(=O)[C@H](CCCNC(=N)N)NC(=O)[C@@H](N)CCCNC(=N)N)CSSC[C@@H](C(=O)N[C@@H](CCCNC(=N)N)C(=O)NC(CC(C)(C)C)C(=O)N[C@@H](CC(C)C)C(=O)N[C@@H](CCC(N)=O)C(N)=O)NC(=O)[C@H](CC(C)C)NC1=O (stereo not given in full) | > 1 | inhibition [1]: inactive |
| CC[C@H](C)[C@@H]1NC(=O)[C@H](NC(=O)[C@@H](N)CCCCN)CSSC[C@@H](C(=O)N[C@@H](CCCNC(=N)N)C(=O)N[C@@H](CC(C)C)C(=O)N[C@@H](CC(C)C)C(=O)N[C@@H](CCC(N)=O)C(=O)NCC(=O)NCC(=O)NCC(=O)N[C@@H](CCCNC(=N)N)C(=O)N[C@@H](CCCNC(=N)N)C(=O)N[C@@H](CCCNC(=N)N)C(=O)N[C@@H](CCCNC(=N)N)C(=O)N[C@@H](CCCNC(=N)N)C(=O)N[C@@H](CCCNC(=N)N)C(=O)N[C@@H](CCCNC(=N)N)C(N)=O)NC(=O)[C@H](CC(C)C)NC1=O | 0.749 | inhibition [3]: 20%; inhibition [4]: 95% |
| CC[C@H](C)[C@@H]1NC(=O)[C@H](NC(=O)[C@@H](N)CCCNC(=N)N)CSSC[C@@H](C(=O)N[C@@H](CCCNC(=N)N)C(=O)NC(CC(C)(C)C)C(=O)N[C@@H](CC(C)C)C(=O)N[C@@H](CCC(N)=O)C(N)=O)NC(=O)[C@H](CC(C)C)NC1=O (stereo not given in full) | 0.013 | – |
| H-HKILHRLLQGGGRRRRRRR-NH2 | > 1 | inhibition [1]: inactive |
| CCC(NC(=O)[C@H](CC(C)C)NC(=O)[C@@H](NC(=O)C(CC)NC(=O)[C@@H](N)CCCNC(=N)N)[C@@H](C)CC)C(=O)N[C@@H](CCCNC(=N)N)C(=O)NC(CC(C)(C)C)C(=O)N[C@@H](CC(C)C)C(=O)NCC(N)=O (stereo not given in full) (H-R[ξAbu]IL[ξAbu]R[ξtBuAla]LG-NH2) | 0.67 | – |
| CC[C@H](C)[C@@H]1NC(=O)[C@H](NC(=O)[C@@H](N)CCCNC(=N)N)CSSC[C@@H](C(=O)N[C@@H](CCCNC(=N)N)C(=O)NC(CC(C)(C)C)C(=O)N[C@@H](CC(C)C)C(=O)N[C@@H](CCC(N)=O)C(=O)NCC(=O)NCC(=O)NCC(=O)N[C@@H](CCCNC(=N)N)C(=O)N[C@@H](CCCNC(=N)N)C(=O)N[C@@H](CCCNC(=N)N)C(=O)N[C@@H](CCCNC(=N)N)C(=O)N[C@@H](CCCNC(=N)N)C(=O)N[C@@H](CCCNC(=N)N)C(=O)N[C@@H](CCCNC(=N)N)C(N)=O)NC(=O)[C@H](CC(C)C)NC1=O (stereo not given in full) | 0.094 | inhibition [3]: 87% |
| CCC(NC(=O)[C@H](CC(C)C)NC(=O)[C@@H](NC(=O)[C@H](Cc1cnc[nH]1)NC(=O)[C@@H](N)CCCNC(=N)N)[C@@H](C)CC)C(=O)N[C@@H](CCCNC(=N)N)C(=O)NC(CC(C)(C)C)C(=O)N[C@@H](CC(C)C)C(=O)N[C@@H](CCC(N)=O)C(N)=O (stereo not given in full) (H-RHIL[ξAbu]R[ξtBuAla]LQ-NH2) | 0.62 | – |
| C=CCC(NC(=O)[C@H](CC(C)C)NC(=O)[C@@H](NC(=O)[C@@H](CC=C)NC(=O)[C@@H](N)CCCNC(=N)N)[C@@H](C)CC)C(=O)N[C@@H](CCCNC(=N)N)C(=O)NC(CC(C)(C)C)C(=O)N[C@@H](CC(C)C)C(=O)N[C@@H](CCC(N)=O)C(N)=O (stereo not given in full) | > 1 | – |
| CC[C@H](C)[C@@H]1NC(=O)[C@H](NC(=O)[C@H](CCCCN)NC(=O)c2ccc3c(c2)C2(OC3=O)c3ccc(O)cc3Oc3cc(O)ccc32)CSSC[C@@H](C(=O)N[C@@H](CCCNC(=N)N)C(=O)N[C@@H](CC(C)C)C(=O)N[C@@H](CC(C)C)C(=O)N[C@@H](CCC(N)=O)C(N)=O)NC(=O)[C@H](CC(C)C)NC1=O | – | Drug uptake [5]: Not Active |
| N=C(N)NCCC[C@H](NC(=O)[C@H](CCCNC(=N)N)NC(=O)[C@H](CCCNC(=N)N)NC(=O)[C@H](CCCNC(=N)N)NC(=O)[C@H](CCCNC(=N)N)NC(=O)[C@H](CCCNC(=N)N)NC(=O)[C@H](CCCNC(=N)N)NC(=O)[C@@H](N)Cc1ccc(O)cc1)C(N)=O | > 1 | inhibition [1]: inactive |
| CC[C@H](C)[C@@H]1NC(=O)[C@H](NC(=O)[C@@H](N)CCCNC(=N)N)C/C=C/C[C@@H](C(=O)N[C@@H](CCCNC(=N)N)C(=O)NC(CC(C)(C)C)C(=O)N[C@@H](CC(C)C)C(=O)N[C@@H](CCC(N)=O)C(N)=O)NC(=O)[C@H](CC(C)C)NC1=O (stereo not given in full) | 0.39 | – |
| CC[C@H](C)[C@@H]1NC(=O)[C@H](NC(=O)[C@H](CCCCN)NC(=O)c2ccc3c(c2)C2(OC3=O)c3ccc(O)cc3Oc3cc(O)ccc32)CSSC[C@@H](C(=O)N[C@@H](CCCNC(=N)N)C(=O)N[C@@H](CC(C)C)C(=O)N[C@@H](CC(C)C)C(=O)N[C@@H](CCC(N)=O)C(=O)NCC(=O)NCC(=O)NCC(=O)N[C@@H](CCCNC(=N)N)C(=O)N[C@@H](CCCNC(=N)N)C(=O)N[C@@H](CCCNC(=N)N)C(=O)N[C@@H](CCCNC(=N)N)C(=O)N[C@@H](CCCNC(=N)N)C(=O)N[C@@H](CCCNC(=N)N)C(=O)N[C@@H](CCCNC(=N)N)C(N)=O)NC(=O)[C@H](CC(C)C)NC1=O | – | Drug uptake [5]: Active |
| CC[C@H](C)[C@@H]1NC(=O)[C@H](NC(=O)[C@@H](N)CCCNC(=N)N)C/C=C\C[C@@H](C(=O)N[C@@H](CCCNC(=N)N)C(=O)NC(CC(C)(C)C)C(=O)N[C@@H](CC(C)C)C(=O)N[C@@H](CCC(N)=O)C(=O)NCC(=O)NCC(=O)NCC(=O)N[C@@H](CCCNC(=N)N)C(=O)N[C@@H](CCCNC(=N)N)C(=O)N[C@@H](CCCNC(=N)N)C(=O)N[C@@H](CCCNC(=N)N)C(=O)N[C@@H](CCCNC(=N)N)C(=O)N[C@@H](CCCNC(=N)N)C(=O)N[C@@H](CCCNC(=N)N)C(N)=O)NC(=O)[C@H](CC(C)C)NC1=O (stereo not given in full) | – | inhibition [1]: inactive |
| H-HKILHRLLQ-NH2 | > 1 | – |
| CC[C@H](C)[C@@H]1NC(=O)[C@H](NC(=O)[C@@H](N)CCCCN)CSSC[C@@H](C(=O)N[C@@H](CCCNC(=N)N)C(=O)N[C@@H](CC(C)C)C(=O)N[C@@H](CC(C)C)C(=O)N[C@@H](CCC(N)=O)C(N)=O)NC(=O)[C@H](CC(C)C)NC1=O (H-K[dC]ILCRLLQ-NH2; disulfide 2-5) | 0.035 | – |
| CC[C@H](C)[C@@H]1NC(=O)[C@H](NC(=O)[C@@H](N)CCCNC(=N)N)C/C=C\C[C@@H](C(=O)N[C@@H](CCCNC(=N)N)C(=O)NC(CC(C)(C)C)C(=O)N[C@@H](CC(C)C)C(=O)N[C@@H](CCC(N)=O)C(N)=O)NC(=O)[C@H](CC(C)C)NC1=O (stereo not given in full) | 0.11 | – |
| CCC(NC(=O)[C@@H](N)CCCNC(=N)N)C(=O)N[C@H](C(=O)N[C@@H](CC(C)C)C(=O)N[C@@H](Cc1cnc[nH]1)C(=O)N[C@@H](CCCNC(=N)N)C(=O)NC(CC(C)(C)C)C(=O)N[C@@H](CC(C)C)C(=O)N[C@@H](CCC(N)=O)C(N)=O)[C@@H](C)CC (stereo not given in full) (H-R[ξAbu]ILHR[ξtBuAla]LQ-NH2) | > 1 | – |
| CC[C@H](C)[C@@H]1NC(=O)[C@H](NC(=O)[C@@H](N)CCCNC(=N)N)CCCC[C@@H](C(=O)N[C@@H](CCCNC(=N)N)C(=O)NC(CC(C)(C)C)C(=O)N[C@@H](CC(C)C)C(=O)N[C@@H](CCC(N)=O)C(N)=O)NC(=O)[C@H](CC(C)C)NC1=O (stereo not given in full) | > 1 | – |
| CC[C@H](C)[C@@H]1NC(=O)[C@H](NC(=O)[C@@H](N)CCCNC(=N)N)C/C=C/C[C@@H](C(=O)N[C@@H](CCCNC(=N)N)C(=O)NC(CC(C)(C)C)C(=O)N[C@@H](CC(C)C)C(=O)N[C@@H](CCC(N)=O)C(=O)NCC(=O)NCC(=O)NCC(=O)N[C@@H](CCCNC(=N)N)C(=O)N[C@@H](CCCNC(=N)N)C(=O)N[C@@H](CCCNC(=N)N)C(=O)N[C@@H](CCCNC(=N)N)C(=O)N[C@@H](CCCNC(=N)N)C(=O)N[C@@H](CCCNC(=N)N)C(=O)N[C@@H](CCCNC(=N)N)C(N)=O)NC(=O)[C@H](CC(C)C)NC1=O (stereo not given in full) | – | inhibition [1]: inactive |
